Data from US9708639B2, “Method for quantifying amino acids with pyrophosphate” (TOYAMA PREFECTURE, priority 2012, dated 2017).

Experiments:
Thermus-derived MetRS = target: T1, Thermus-derived MetRS (Thermus thermophilus, UniProt P23395); assay: Qualitative test of AARS substrate specificity (AARS activity at 70° C.); assay type: biochemical, Thermus thermophilus HB8 strain; parameters: key: +: Activity was detected; −: Activity was not detected; conditions: amino acids 200 μM, hydroxylamine 400 mM
T1 construct: host or cells: Escherichia coli BL21 (DE3)
T1 sequence (P23395 whole entry): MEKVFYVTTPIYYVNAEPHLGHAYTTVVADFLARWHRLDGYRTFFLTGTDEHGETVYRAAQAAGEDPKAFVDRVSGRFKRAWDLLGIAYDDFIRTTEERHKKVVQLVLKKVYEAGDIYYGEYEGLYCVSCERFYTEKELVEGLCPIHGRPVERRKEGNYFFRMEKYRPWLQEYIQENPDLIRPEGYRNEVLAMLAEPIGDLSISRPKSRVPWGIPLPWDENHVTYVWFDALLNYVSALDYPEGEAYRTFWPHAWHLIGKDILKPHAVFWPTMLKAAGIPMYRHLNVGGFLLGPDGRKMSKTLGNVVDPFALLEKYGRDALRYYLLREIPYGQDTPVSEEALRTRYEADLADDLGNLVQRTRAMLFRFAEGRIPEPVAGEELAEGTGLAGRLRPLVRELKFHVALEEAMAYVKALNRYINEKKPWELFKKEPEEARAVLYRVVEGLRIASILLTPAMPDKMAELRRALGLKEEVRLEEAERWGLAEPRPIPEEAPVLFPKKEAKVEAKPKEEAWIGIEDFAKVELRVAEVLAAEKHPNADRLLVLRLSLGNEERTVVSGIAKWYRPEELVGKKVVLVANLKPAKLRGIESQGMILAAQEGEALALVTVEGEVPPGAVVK
Protocol: (§1) A test sample containing an amino acid as the measurement subject and a reaction mixture for quantifying amino acid having the following composition were mixed. The mixture was left standing at 70° C. to allow the AARS reaction to advance. The mixture in a volume of 600 μl, 60 μl of a 1 M 2-mercaptoethanol solution, and 240 μl of the color development solution mentioned below were mixed, then the mixture was left standing at room temperature for 20 minutes, and the absorbance was measured at 580 nm in a cuvette having an optical path length of 1 cm.
(§2) Reaction mixture for quantifying amino acid: 20 mM HEPES-NaOH (pH 8.0), 5 mM MgCl2, 0.5 mM ATP, and AARS (concentrations are final concentrations obtained after mixing with test sample)
(§3) Color developing solution: A solution obtained by mixing water and concentrated sulfuric acid at a ratio of 6:1 and dissolving (NH4)6Mo7O24.4H2O in the mixture at a concentration of 0.025 g/ml
(§4) Presence or absence of pyrophosphate generation was verified for the Thermotoga-derived CysRS, HisRS, LysRS, ProRS, SerRS, TrpRS, and TyrRS by using the AARS activity measurement method described in 9. and standard solutions of the various amino acids as test samples. AARSs were added to the reaction mixture at final concentrations of 0.3 (8 mU/ml), 0.1, 0.2 (3 mU/ml), 0.2, 0.1 (1 mU/ml), 0.1, 0.2 (20 mU/ml) mg/ml, respectively. The reaction mixtures were prepared so that the final concentration of Tyr was 1 mM, and the final concentrations of the other amino acids were 5 mM. As for the hydroxylamine concentration, it was added at a final concentration of 1000 mM for all the cases. Further, presence or absence of pyrophosphate production was also verified for the Thermus-derived MetRS and TyrRS by using the AARS activity measurement method described in 10. and standard solutions of the various amino acids as test samples. The reaction mixtures were prepared so that the final concentrations of the amino acids were 200 μM. Hydroxylamine was added at a final concentration of 400 mM.
(§5) Detection or no detection of the activity in the reaction mixtures containing a combination of each AARS and amino acid are shown in Table 2. The symbol + indicates detection of the activity, and − indicates no detection of the activity.

Thermus-derived TyrRS = target: T2, Thermus-derived TyrRS (Thermus thermophilus, UniProt P83453); assay: as above; assay type: biochemical, Thermus thermophilus HB8 strain; parameters: key: +: Activity was detected; −: Activity was not detected; conditions: amino acids 200 μM, hydroxylamine 400 mM
T2 construct: host or cells: Escherichia coli BL21 (DE3)
T2 sequence (P83453 whole entry): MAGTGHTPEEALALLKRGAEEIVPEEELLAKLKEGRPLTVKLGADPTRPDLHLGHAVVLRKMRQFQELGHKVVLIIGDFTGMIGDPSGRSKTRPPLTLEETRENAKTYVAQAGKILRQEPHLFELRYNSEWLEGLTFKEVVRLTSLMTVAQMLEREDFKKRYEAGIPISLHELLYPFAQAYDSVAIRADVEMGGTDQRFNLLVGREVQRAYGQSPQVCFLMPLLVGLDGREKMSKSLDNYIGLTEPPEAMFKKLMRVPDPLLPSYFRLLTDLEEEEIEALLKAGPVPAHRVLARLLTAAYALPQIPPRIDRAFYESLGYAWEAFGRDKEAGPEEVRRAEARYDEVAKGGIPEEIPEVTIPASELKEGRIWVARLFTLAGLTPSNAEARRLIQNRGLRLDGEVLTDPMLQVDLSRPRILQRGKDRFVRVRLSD
Protocol: as §1, §2, §3, §4, §5

Thermotoga-derived SerRS = target: T3, Thermotoga-derived SerRS (Thermotoga maritima, UniProt Q9X199); assay: Calibration curve for amino acid by coupled PPDK and LDH; assay type: biochemical, Thermotoga maritima MSB8 strain; conditions: Ser 0 to 200 μM; hydroxylamine 1000 mM; SerRS 0.2 mg/ml (8 mU/ml); 30° C.
T3 construct: His tag (C); made in house; host or cells: Escherichia coli BL21 (DE3)
T3 sequence (Q9X199 whole entry): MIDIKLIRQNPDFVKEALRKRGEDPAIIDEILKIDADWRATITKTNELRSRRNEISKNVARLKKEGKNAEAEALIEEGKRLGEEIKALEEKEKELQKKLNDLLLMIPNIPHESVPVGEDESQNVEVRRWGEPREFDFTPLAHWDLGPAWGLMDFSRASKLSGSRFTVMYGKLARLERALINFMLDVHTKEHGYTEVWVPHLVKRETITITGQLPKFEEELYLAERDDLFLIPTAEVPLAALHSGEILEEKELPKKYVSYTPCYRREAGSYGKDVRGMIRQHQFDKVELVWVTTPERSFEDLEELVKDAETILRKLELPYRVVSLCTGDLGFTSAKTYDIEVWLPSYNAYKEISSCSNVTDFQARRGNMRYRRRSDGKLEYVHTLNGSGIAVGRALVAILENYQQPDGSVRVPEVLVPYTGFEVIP
Protocol: (§6) A test sample containing an amino acid as the measurement subject and a reaction mixture for quantifying amino acid having the following composition were mixed. The mixture was left standing at 30° C. to allow the AARS, PPDK, and LDH reactions to advance, and decrease of the absorbance at 340 nm was measured. The volume of the mixture was 200 μl, and after the reaction mixture was put into the wells of a 96-well microplate, the absorbance was measured with a microplate reader.
(§7) Reaction mixture for quantifying amino acid: 20 mM Tris-HCl (pH 7.0), 10 mM MgCl2, 10 mM NH4Cl, 0.3 mM PEP, 0.3 mM NADH, 0.2 mM ATP, 0.2 mM AMP, 70 mU/ml PPDK, 50 U/ml LDH, and AARS (concentrations are final concentrations obtained after mixing with test sample)
(§8) Calibration curves were prepared by using the AARS activity measurement method described in 8. and standard Cys, Lys, Ser, and Tyr solutions as test samples. The concentrations of the aforementioned amino acids were set so that the final concentrations thereof are in the range of 0 to 200 μM. The hydroxylamine concentration was 200 mM for the samples used for the Tyr calibration curve, or 1000 mM for the samples used for the Cys, Lys, and Ser calibration curves. The Thermotoga-derived CysRS, LysRS, SerRS, TyrRS, and the Thermus-derived TyrRS were added to the reaction mixture at final concentrations of 0.2 (7 mU/ml), 0.1 (10 mU/ml), 0.2 (8 mU/ml), 0.4 (40 mU/ml), and 0.1 mg/ml, respectively.
(§9) Calibration curves could be similarly prepared when adding pyrophosphate instead of the aforementioned amino acids, but the inclinations of the Lys, Ser, and Tyr calibration curves (absorbance change per mM of substrate) were 80% or more of the inclination of the pyrophosphate calibration curve. […] The inclination of the Cys calibration curve was slightly smaller than those of the other calibration curves, and it is considered that this is because a part of cysteine in the test sample was converted into cystine by air oxidation, and the real concentration of cysteine was reduced.

Thermotoga-derived LysRS = target: T4, Thermotoga-derived LysRS (Thermotoga maritima, UniProt Q9X231); assay: as above; assay type: biochemical, Thermotoga maritima MSB8 strain; conditions: Lys 0 to 200 μM; hydroxylamine 1000 mM; LysRS 0.1 mg/ml (10 mU/ml); 30° C.
T4 construct: His tag (C); made in house; host or cells: Escherichia coli BL21 (DE3)
T4 sequence (Q9X231 1-502): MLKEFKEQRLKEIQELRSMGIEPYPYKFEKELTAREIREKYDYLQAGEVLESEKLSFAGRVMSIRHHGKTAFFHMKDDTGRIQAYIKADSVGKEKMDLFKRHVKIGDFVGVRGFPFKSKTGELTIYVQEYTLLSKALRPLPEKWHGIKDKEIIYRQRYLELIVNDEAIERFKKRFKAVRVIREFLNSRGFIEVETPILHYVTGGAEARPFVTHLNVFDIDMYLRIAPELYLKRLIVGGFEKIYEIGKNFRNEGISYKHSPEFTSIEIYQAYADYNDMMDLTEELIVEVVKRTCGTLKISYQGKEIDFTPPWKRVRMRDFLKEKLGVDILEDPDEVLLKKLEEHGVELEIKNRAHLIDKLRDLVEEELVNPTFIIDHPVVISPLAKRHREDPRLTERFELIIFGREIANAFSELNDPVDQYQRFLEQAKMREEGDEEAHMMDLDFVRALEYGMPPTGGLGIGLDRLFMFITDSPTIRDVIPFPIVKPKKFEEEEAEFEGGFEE
Protocol: as §6, §7, §8, §9

Compound	Detection of the activity (pyrophosphate production), MetRS (Thermus) (Thermus-derived MetRS)	Detection of the activity (pyrophosphate production), TyrRS (Thermus) (Thermus-derived TyrRS)	inclination of calibration curve relative to inclination of the pyrophosphate calibration curve (Thermotoga-derived SerRS) [%]	inclination of calibration curve relative to inclination of the pyrophosphate calibration curve (Thermotoga-derived LysRS) [%]
N[C@@H](CCC(=O)O)C(=O)O [Glu, L-glutamic acid]	−	−		
N[C@@H](CS)C(=O)O [Cys, L-cysteine]	−	−		
N[C@@H](Cc1c[nH]cn1)C(=O)O [His, L-histidine]	−	−		
CC[C@H](C)[C@H](N)C(=O)O [Ile, L-isoleucine]	−	−		
O=C(O)[C@@H]1CCCN1 [Pro, L-proline]	−	−		
NC(=O)C[C@H](N)C(=O)O [Asn, L-asparagine]	−	−		
CC(C)C[C@H](N)C(=O)O [Leu, L-leucine]	−	−		
N[C@@H](CC(=O)O)C(=O)O [Asp, L-aspartic acid]	−	−		
N[C@@H](Cc1ccccc1)C(=O)O [Phe, L-phenylalanine]	−	−		
N[C@@H](CO)C(=O)O [Ser, L-serine]	−	−	≥ 80	
C[C@@H](O)[C@H](N)C(=O)O [Thr, L-threonine]	−	−		
NCCCC[C@H](N)C(=O)O [Lys, L-lysine]	−	−		≥ 80
CSCC[C@H](N)C(=O)O [Met, L-methionine]	+	−		
NC(=O)CC[C@H](N)C(=O)O [Gln, L-glutamine]	−	−		
N=C(N)NCCC[C@H](N)C(=O)O [Arg, L-arginine]	−	−		
N[C@@H](Cc1ccc(O)cc1)C(=O)O [Tyr, L-tyrosine]	−	+		
C[C@H](N)C(=O)O [Ala, L-alanine]	−	−		
CC(C)[C@H](N)C(=O)O [Val, L-valine]	−	−		
NCC(=O)O [Gly, glycine]	−	−		
N[C@@H](Cc1c[nH]c2ccccc12)C(=O)O [Trp, L-tryptophan]	−	−		
